Results from patent US6383276B1, “Azomethine compound and oily magenta ink” (Fuji Photo Film Co., Ltd., priority 1999, dated 2002).

How the values were obtained:
[1] = Absorption maximum and molar extinction coefficient of ethyl acetate solutions; type: physicochemical; conditions: ethyl acetate solution
Description: With respect to each of the ethyl acetate-base magenta inks [ethyl acetate solutions of the compounds (Ia-1), (Ia-6), (Ia-12), (Ia-13), (Ia-14) and (Ia-15)] prepared in Example 4, the absorption maximum (λmax) and molar extinction coefficient (ε) were measured.
With respect to each of the ethyl acetate-base magenta inks [ethyl acetate solutions of the compounds (X-1), (X-2), (X-3) and (X-4)] prepared in Comparison Example 1, the absorption maximum (λmax) was measured.

[2] = Measurement of solubility in ethyl acetate (Example 6, Comparison Example 1); type: physicochemical; conditions: 25° C. for 20 hours, filtered through 0.2 μm filter, ink concentrated
Description: With respect to each of the azomethine compounds (Ia-6), (Ia-12) and (Ia-14), 600 mg of the compound was placed in a lidded test tube. After 2 ml of ethyl acetate was added, the mixture was treated with an ultrasonic cleaner for 30 minutes. The resultant liquid was heated and stirred at 65° C. for 1 hour, and then cooled to room temperature. After leaving the test tube in a constant temperature bath at 25° C. for 20 hours, solid particles were filtered off with a micro filter having the pore size of 0.2 μm to prepare an oily magenta ink.
Each prepared ink was concentrated to measure the solubility, but solid (crystallite) was not deposited.
With respect to each of the following azomethine compounds (X-1), (X-2), (X-3) and (X-4), 30 mg of the compound was placed in a lidded test tube. After 2 ml of ethyl acetate was added, the mixture was treated with an ultrasonic cleaner for 30 minutes. The resultant liquid was heated and stirred at 65° C. for 1 hour, and then cooled to room temperature. After leaving the test tube in a constant temperature bath at 25° C. for 20 hours, solid particles were filtered off with a micro filter having the pore size of 0.2 μm to prepare an oily magenta ink. [drawing 13]
Each prepared ink was concentrated to measure the solubility.

Row | Compound | Absorption maximum (λmax) ([1]; Table 1) [nm] | Molar extinction coefficient (ε) ([1]; Table 1) | Absorption maximum (λmax) ([1]; Table 2) [nm] | Solubility [2]
1 | CCCCCCC(Oc1ccc(C(C)(C)CC)cc1C(C)(C)CC)C(=O)Nc1ccc(-c2nc3n(n2)N=C(C(C)(C)C)C3=Nc2ccc(N(CCO)CCC#N)cc2C)cc1 (stereo not drawn) [Ia-15] | 532 | 4.9 × 10^4 | – | –
2 | CCN(CCC#N)c1ccc(N=C2C(C)=Nn3nc(C(C)CNC(=O)CCCOc4ccc(OC)cc4)nc32)cc1 (stereo not drawn) [X-3, reference compound] | – | – | 511 | 1.72 wt. %
3 | CCCCCCC(Oc1ccc(C(C)(C)CC)cc1C(C)(C)CC)C(=O)NCC(C)c1nc2n(n1)N=C(C)C2=Nc1ccc(N(CC)CCC#N)cc1 (stereo not drawn) [Ia-1] | 512 | 5.0 × 10^4 | – | –
4 | COc1ccc(OCCN(CCC#N)c2ccc(N=C3C(C)=Nn4nc(C(C)CN5C(=O)c6ccccc6C5=O)nc43)cc2)cc1 (stereo not drawn) [X-1, reference compound] | – | – | 504 | 0.18 wt. %
5 | CCCCCCCCCCCCCCOC(=O)CCC(=O)Nc1ccc(-c2nc3n(n2)N=C(C(C)(C)C)C3=Nc2ccc(N(CCC#N)CCCC)cc2)cc1 [Ia-12] | 519 | 4.8 × 10^4 | 519 | 30.1 wt. % or more
6 | CCCCCCC(Oc1ccc(C(C)(C)CC)cc1C(C)(C)CC)C(=O)NCC(C)c1nc2n(n1)N=C(C)C2=Nc1ccc(N(CCO)CCC#N)cc1C (stereo not drawn) [Ia-6] | 522 | 5.2 × 10^4 | 522 | 30.2 wt. % or more
7 | CCCCCCC(Oc1ccc(C(C)(C)CC)cc1C(C)(C)CC)C(=O)Nc1ccc(-c2nc3n(n2)N=C(C(C)(C)C)C3=Nc2ccc(N(CCC#N)CCCC)cc2)cc1 (stereo not drawn) [Ia-14] | 520 | 4.8 × 10^4 | 520 | 30.1 wt. % or more
8 | CCCCCCC(Oc1ccc(C(C)(C)CC)cc1C(C)(C)CC)C(=O)Nc1ccc(-c2nc3n(n2)N=C(C(C)(C)C)C3=Nc2ccc(N(CC)CCC#N)cc2)cc1 (stereo not drawn) [Ia-13] | 517 | 4.6 × 10^4 | – | –
9 | CCN(CC)c1ccc(N=C2C(C)=Nn3nc(C(C)CNC(=O)CCCOc4ccc(OC)cc4)nc32)c(C)c1 (stereo not drawn) [X-4, reference compound] | – | – | 536 | 0.63 wt. %
